“Also recorded” adds a separate entry of the source. Like-named read-outs stand apart in the source and are kept apart here. Blank lines part the entries; values can stand above or below the molecule they belong to.
Assays:
[1] = pH testing of test substances (pH strips, probe and meter); format: physicochemical
Description: PH testing was done by using both pH testing strips and a probe and meter for each test substance to determine its pH. Each test substance was dissolved in 150 ml distilled water then tested for its pH value. Where the test substance could not be tested because it was not water soluble, an art-recognized pH was used.
PH testing was done by using both ph testing strips and a probe and meter for each test substance to determine its pH. Each test substance was dissolved in 150 ml distilled water then tested for its pH value.

[2] = not tested, cited from earlier work; for (pH): Table 6, too viscous
[3] = Two-week stability of compressed lozenge of NAD+ with a test substance, HPLC UV; settings: for Observation when the composition was made: NAD+ with test substance, HPLC data could not be obtained
Description: Preparations of nicotinamide adenine dinucleotide (oxidized form) were compounded. A compressed lozenge was created including 100 mg nicotinamide adenine dinucleotide (oxidized form) and 100 mg of a test substance. The powders were compressed in a tablet mold and released. Each test tablet was then placed in a white 75cc HDPE container that was sealed and removed from UV light for two weeks at room temperature.
After a two week period, the compositions were tested by performing an HPLC UV.

[4] = cited from earlier work
[5] = anhydrous NAD+ with test substance, two weeks, HPLC UV versus NAD+ control
[6] = Table 5, test substance dissolved in 150 ml distilled water

(pH) Value ([1]; summary of Table 6): neutral
Molecule: OC[C@@H](O)[C@@H](O)[C@H](O)[C@@H](O)CO [70% Sorbitol, Sorbitol]
(pH) [2]: (pH) neutral

Molecule: CCCCCCCCCCCCCCCC(=O)OC[C@H](O)[C@H]1OC(=O)C(O)=C1O [Ascorbyl palmitate]
pH range ([2]; Table 5, not water soluble, art-recognized pH): (pH) range 6.8-7.2

(pH) Value ([1]; Table 6, test substance in 150 ml distilled water): 6.9
(pH) Value ([1]; summary of Table 6): neutral
Molecule: OCc1ccccc1 [Benzyl alcohol]

Molecule: O=P([O-])([O-])O.[Ca+2] [Calcium Phosphate Dibasic, Calcium phosphate dibasic]
Degradation of NAD+ when formulated with the test substance by itself (words) [3, 5]: did not degrade the NAD+; also recorded: little to no degradation; also recorded: do not degrade NAD+
Degradation of NAD+ when formulated with the test substance by itself (words) ([3]; anhydrous NAD+ with test substance, two weeks, HPLC UV versus NAD+ control, listed as CaHPO4): deemed effective
(pH) Value [1, 6]: 8.5

(pH) Value [1, 6]: 6.3
Molecule: OC[C@@H](O)[C@@H](O)CO [Erythitol, Erythritol]

(pH) Value ([1]; summary of Table 6): neutral
Molecule: OCC(O)CO [Glycerin]
(pH) [2]: (pH) neutral

Molecule: [Mg+2].[OH-].[OH-] [Magnesium Hydroxide Mg(OH)2, Magnesium hydroxide]
Degradation of NAD+ when formulated with the test substance by itself (words) ([3]; anhydrous NAD+ with test substance, two weeks, HPLC UV versus NAD+ control, listed as Mg(OH)2): deemed effective
Degradation of NAD+ when formulated with the test substance by itself (words) ([3]; anhydrous NAD+ with test substance, two weeks, HPLC UV versus NAD+ control, listed as magnesium hydroxide): do not degrade NAD+; also recorded: provided for stable compositions of NAD+

Molecule: [O]=[Mg] [Magnesium Oxide MgO, Magnesium oxide]
Degradation of NAD+ when formulated with the test substance by itself (words) [3, 5]: cause degradation of the NAD+
(pH) Value [1, 6]: 9.1

Molecule: O=C([O-])[O-].[Mg+2] [Magnesium carbonate MgCO2, Magnesium carbonate]
Degradation of NAD+ when formulated with the test substance by itself (words) [3, 5]: did not degrade the NAD+; also recorded: little to no degradation; also recorded: do not degrade NAD+

(pH) Value [1, 6]: 6.7
Molecule: OC[C@@H](O)[C@@H](O)[C@H](O)[C@H](O)CO [Mannitol]

Molecule: NC(=O)c1ccc[n+]([C@@H]2O[C@H](COP(=O)([O-])OP(=O)(O)OC[C@H]3O[C@@H](n4cnc5c(N)ncnc54)[C@H](O)[C@@H]3O)[C@@H](O)[C@H]2O)c1 [NAD+, nicotinamide adenine dinucleotide (oxidized form)]
Time NAD+ can be stable ([4]; aqueous solutions between pH 2-6, stored at −70° C.): up to 6 months
Time NAD+ is stable ([4]; fairly neutral aqueous solutions at 0° C.): up to 2 weeks
Time the stability of NAD+ will last ([4]; neutral or slightly acidic solutions stored at zero degrees Fahrenheit): up to 2 weeks

Molecule: O=C([O-])O.[K+] [Potassium Bicarbonate K2CO2, Potassium bicarbonate]
Degradation of NAD+ when formulated with the test substance by itself (words) [3, 5]: cause degradation of the NAD+

Molecule: [K+].[OH-] [Potassium Hydroxide KOH, Potassium hydroxide]
Observation when the composition was made [3]: bubbled, liquefied, turned yellow, and created heat
Degradation of NAD+ when formulated with the test substance by itself (words) [3, 5]: cause degradation of the NAD+

Molecule: O=C([O-])O.[Na+] [Sodium Bicarbonate Na2CO2, Sodium bicarbonate]
Degradation of NAD+ when formulated with the test substance by itself (words) [3, 5]: showed degradation shortly after creation of the lozenge tablet; also recorded: cause degradation of the NAD+

Molecule: [Cl-].[Na+] [Sodium Chloride NaCl, Sodium chloride]
Degradation of NAD+ when formulated with the test substance by itself (words) [3, 5]: positive results; also recorded: do not degrade NAD+

Molecule: O=C1O[C@H]([C@@H](O)CO)C([O-])=C1O.[Na+] [Sodium ascorbate]
Degradation of NAD+ when formulated with the test substance by itself (words) [3, 5]: positive results
Degradation of NAD+ when formulated with the test substance by itself (words) ([3]; anhydrous NAD+ with test substance, two weeks, HPLC UV versus NAD+ control, listed as sodium ascorbate): do not degrade NAD+

Degradation of NAD+ when formulated with the test substance by itself (words) [3]: cause degradation of the NAD+
Molecule: CCCCCCCCCCCCCCCCCC(=O)O [Stearic acid]

(pH) Value ([1]; summary of Table 6): neutral
Molecule: CC(=O)Oc1c(C)c(C)c2c(c1C)CCC(C)(CCC[C@H](C)CCC[C@H](C)CCCC(C)C)O2 (some centres unmarked) [Tocopherol acetates, Tocopherol acetate]
(pH) [2]: (pH) neutral

(pH) Value [1, 6]: 6.5
Molecule: OC[C@@H](O)[C@H](O)[C@@H](O)CO [Xylitol]

Molecule: Magnesium stearate
Degradation of NAD+ when formulated with the test substance by itself (words) [3, 5]: cause degradation of the NAD+

(pH) Value ([1]; summary of Table 6): neutral
Molecule: Polysorbate 80
(pH) [2]: (pH) neutral

Molecule: Sodium hydroxide [Sodium Hydroxide NaOH]
Observation when the composition was made [3]: bubbled, liquefied, turned yellow, and created heat
